Values of other authors as cited in patent US20040142333A1, “Novel secreted proteins and their uses” (priority 2000, published 2004).
Where a SMILES comes first, the peptide text is derived from it. [ ]: non-standard residue; d: D form. The star is where a group is joined. 4Abz = Nc1ccc(C(=O)O)cc1; NHOH = ON*

What was measured:
[1] = tested on: human metastatic melanoma (M24 cells)
M24 cells = details: murine metastasis model
MMP-3 = MMP-3 (Homo sapiens, UniProt P08254); details: read-out: IC50 against MMP-3
MMP-9 = MMP-9 (Homo sapiens, UniProt P14780); details: read-out: IC50 against MMP-9
MMP-1 = target: T1, MMP-1 (Homo sapiens, UniProt P03956); details: read-out: IC50 against MMP-1
T1 sequence (P03956 100-469): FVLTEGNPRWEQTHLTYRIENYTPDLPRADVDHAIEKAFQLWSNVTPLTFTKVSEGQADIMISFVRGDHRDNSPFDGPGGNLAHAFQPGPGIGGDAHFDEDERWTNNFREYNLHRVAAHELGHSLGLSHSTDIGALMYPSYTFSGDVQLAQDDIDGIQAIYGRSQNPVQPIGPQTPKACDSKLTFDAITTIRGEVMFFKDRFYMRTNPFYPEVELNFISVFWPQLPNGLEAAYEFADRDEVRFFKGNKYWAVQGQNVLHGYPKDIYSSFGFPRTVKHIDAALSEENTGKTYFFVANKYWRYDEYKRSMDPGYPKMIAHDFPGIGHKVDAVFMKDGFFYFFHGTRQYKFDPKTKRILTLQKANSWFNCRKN

MMP-8 = MMP-8 (Homo sapiens, UniProt P22894); details: read-out: IC50 against MMP-8
MMP-8, sequence (P22894 101-467, species assumed): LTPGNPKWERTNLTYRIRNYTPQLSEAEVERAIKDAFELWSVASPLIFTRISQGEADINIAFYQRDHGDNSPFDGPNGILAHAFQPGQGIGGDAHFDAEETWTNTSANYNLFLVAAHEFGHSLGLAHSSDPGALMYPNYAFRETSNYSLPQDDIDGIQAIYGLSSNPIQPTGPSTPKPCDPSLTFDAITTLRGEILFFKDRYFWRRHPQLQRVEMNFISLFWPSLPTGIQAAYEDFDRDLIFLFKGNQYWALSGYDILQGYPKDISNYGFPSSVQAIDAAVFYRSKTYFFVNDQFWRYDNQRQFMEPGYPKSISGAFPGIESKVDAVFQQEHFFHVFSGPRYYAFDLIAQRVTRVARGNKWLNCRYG

MMP-3, sequence (P08254 100-477, species assumed): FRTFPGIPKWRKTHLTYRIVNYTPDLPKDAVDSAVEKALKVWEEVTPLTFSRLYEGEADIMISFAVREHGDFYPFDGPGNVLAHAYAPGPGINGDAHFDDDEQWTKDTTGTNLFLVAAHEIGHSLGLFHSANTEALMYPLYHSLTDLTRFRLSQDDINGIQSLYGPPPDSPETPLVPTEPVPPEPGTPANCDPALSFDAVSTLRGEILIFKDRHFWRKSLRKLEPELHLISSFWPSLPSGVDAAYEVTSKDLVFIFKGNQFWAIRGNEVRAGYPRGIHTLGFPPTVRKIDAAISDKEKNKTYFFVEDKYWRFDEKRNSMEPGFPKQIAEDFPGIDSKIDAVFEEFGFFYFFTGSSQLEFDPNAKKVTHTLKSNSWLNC
MMP-9, sequence (P14780 94-707, species assumed): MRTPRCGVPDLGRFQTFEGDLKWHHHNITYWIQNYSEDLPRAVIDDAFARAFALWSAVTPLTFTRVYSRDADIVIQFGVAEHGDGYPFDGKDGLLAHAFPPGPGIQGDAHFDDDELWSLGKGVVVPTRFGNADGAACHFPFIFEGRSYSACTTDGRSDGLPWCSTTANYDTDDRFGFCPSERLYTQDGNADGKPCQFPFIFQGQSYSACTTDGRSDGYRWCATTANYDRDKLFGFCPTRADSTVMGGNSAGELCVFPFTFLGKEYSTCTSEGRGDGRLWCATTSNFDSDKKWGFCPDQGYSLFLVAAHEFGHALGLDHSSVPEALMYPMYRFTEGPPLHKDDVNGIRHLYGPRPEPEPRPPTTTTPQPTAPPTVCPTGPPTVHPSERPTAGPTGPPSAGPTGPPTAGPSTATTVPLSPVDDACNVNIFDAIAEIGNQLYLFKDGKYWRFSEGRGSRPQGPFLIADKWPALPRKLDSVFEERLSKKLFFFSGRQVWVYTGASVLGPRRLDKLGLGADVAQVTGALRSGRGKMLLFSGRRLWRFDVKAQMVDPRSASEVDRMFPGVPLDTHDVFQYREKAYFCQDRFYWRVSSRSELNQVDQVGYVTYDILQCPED

| IC50 (MMP-3) | IC50 (MMP-9) | IC50 (MMP-1) | IC50 (MMP-8) | Compound | cell adhesion to type I collagen, vitronectin, and fibronectin [1] | lung colonization of M24 cells (M24 cells) |
| --- | --- | --- | --- | --- | --- | --- |
|  |  |  |  | contortrostatin | inhibit | inhibits lung colonization |
| 150 µM | 30 µM | 1000 nM | 1000 nM | CC(C)C[C@@H](NC(=O)[C@@H]1CCCN1C(=O)CNC(=O)c1ccc(N)cc1)C(=O)N[C@H](C)C(=O)NO [MMP inhibitor I] (H-[4Abz]GP[dL][dA]-{NHOH}) |  |  |
